Assay results from the METLIN SMRT retention time set (Domingo-Almenara et al. 2019).

Assay: gradient 5% acetonitrile 3 min, to 50% in 2 min, to 85% in 15 min, held 3 min, 100 µL/min
Settings: column: Zorbax Extend-C18 2.1 x 50 mm; eluents: water / acetonitrile, 0.1% formic acid
How it was run: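 Using water and acetonitrile that each contained 0.1% formic acid, mixtures of ~100 pure standards were separated at 100 μL/min on a Zorbax Extend-C18 column (2.1 × 50 mm, 1.8 μm). The HPLC fed a quadrupole time-of-flight mass spectrometer working in positive and negative ionization mode, with dead and dwell volumes of 40 μL and 900 μL. Data were acquired over 3 months. Retention time was read from computationally picked adduct peaks after manual inspection of each.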

Cc1noc(C2CN(C(=O)CCC3CCCC3)CC23CCOCC3)n1 (configuration not stated)
RP-LC retention time: 814 s

CCCc1noc(-c2ccc3nnc(CC(=O)Nc4ccc(C)c(C)c4)n3c2)n1
RP-LC retention time: 940 s

Cc1oc(-c2ccc(NC(=O)c3cccs3)cc2)nc1Cn1cccn1
RP-LC retention time: 836 s

Cc1cc(-c2nnc(-c3ccc(F)cc3)o2)c(C)n1CC(=O)NC1CCCCC1
RP-LC retention time: 979 s

CCOC(=O)Cc1sc(Nc2nc(C)cc(C)n2)nc1-c1ccccc1
RP-LC retention time: 989 s

Cc1cc(C(F)F)n2nc(C(=O)Nc3ccc(C)c(C)c3)nc2n1
RP-LC retention time: 860 s

COC(=O)c1cccc(NC(=O)N2C[C@@H]3C[C@H]2C[C@@H]3NC(=O)c2ccccc2)c1
RP-LC retention time: 736 s

CCc1ccc(C2=C(C)C(N3CCCN(C(=O)CC(C)C)CC3)=NS2(=O)=O)cc1
RP-LC retention time: 874 s

CCCS(=O)(=O)c1nc2ccc(NS(=O)(=O)c3ccccc3)cc2s1
RP-LC retention time: 879 s

CN(C)c1cc(-n2cnc(C(=O)NCc3ccccc3Cl)c2)ncn1
RP-LC retention time: 813 s

Cc1ccc2c(Nc3ccc(C)c(F)c3)c(-c3nc(C)no3)cnc2n1
RP-LC retention time: 807 s

COc1ccc(CNC(=O)Cn2nc3cc(C)nc(-c4ccccc4)n3c2=O)cc1
RP-LC retention time: 752 s

CN(CC1CCOC1)C(=O)Nc1ccc(C(F)(F)F)cc1 (configuration not stated)
RP-LC retention time: 783 s

Cc1ccc(-c2cn3c(CC(=O)NCc4ccc(Cl)cc4)csc3n2)cc1C
RP-LC retention time: 892 s

CCOc1ccc(CC(=O)N2CCCC2c2nc(-c3ccccc3)no2)cc1OCC (configuration not stated)
RP-LC retention time: 1010 s

CC(C)c1ccc(NC(=O)Cn2cccc2-c2nc(-c3ccc4c(c3)OCO4)no2)cc1
RP-LC retention time: 1220 s

CC(=O)Nc1c(C)noc1/C=C\c1ccc(S(=O)(=O)N2CCN(c3ccccn3)CC2)cc1
RP-LC retention time: 643 s

COc1ccc(NC(=O)N2CCC(c3nc(C(=O)N4CCOCC4)c(C)o3)CC2)cc1
RP-LC retention time: 660 s

Cc1nc(-c2cc(S(=O)(=O)Nc3cccc(F)c3)c(C)s2)sc1C
RP-LC retention time: 1060 s

CCN(CC)C(=O)Cn1ccn2nc(-c3ccccc3)c(CO)c2c1=O
RP-LC retention time: 721 s

CCCNC(=O)N1CCN(c2nc3c(s2)CN(C(=O)CC)CC3)CC1
RP-LC retention time: 602 s

O=C1COc2ccc(NC(=O)c3cc(C4CC4)n(C4CCS(=O)(=O)C4)n3)cc2N1 (configuration not stated)
RP-LC retention time: 652 s

O=C(C1CC(=O)N(c2ccc3c(c2)CCN3C(=O)C2CCC2)C1)N1CCCCC1 (configuration not stated)
RP-LC retention time: 760 s

Cc1cc(N2CCN(C(=O)Cc3ccc(F)cc3)CC2)nc2nncn12
RP-LC retention time: 596 s

O=C(Cn1c(=O)oc2ccccc21)N1CCN(C(=O)C2CC2c2cccs2)CC1 (configuration not stated)
RP-LC retention time: 738 s

CC(=O)NCC1CNCC12CCCCC2 (configuration not stated)
RP-LC retention time: 509 s

Cc1ccc(C)c(NC(=O)Cn2cnc3c(sc4nc(-c5ccccc5)ccc43)c2=O)c1
RP-LC retention time: 1050 s

Cc1cc(N2CCN(C)CC2)nc(N2CCN(C(=O)c3ccc(C(C)(C)C)cc3)CC2)n1
RP-LC retention time: 586 s

Cc1cc(C)n2nc(SCC(=O)NCc3ccccc3)nc2n1
RP-LC retention time: 705 s

COc1ccc(OC)c(-c2csc(-c3nnn(-c4ccc(F)cc4)c3N)n2)c1
RP-LC retention time: 1090 s

COCCc1nnc(NC(=O)COc2ccc(Cl)cc2)o1
RP-LC retention time: 655 s

CCc1ccc(N2CC(c3noc(-c4cccc(Cl)c4)n3)CC2=O)cc1 (configuration not stated)
RP-LC retention time: 1200 s

Cc1ccccc1-c1nc(C2CCN(S(=O)(=O)c3ccc4c(c3)CCC4)CC2)no1
RP-LC retention time: 1130 s

CCOC(=O)c1c(S(=O)(=O)N2CCC(C(=O)NCc3ccccc3OC)CC2)c(C)n(C)c1C
RP-LC retention time: 800 s

O=C(NCc1cccc(C(F)(F)F)c1)c1cn2ccccc2n1
RP-LC retention time: 748 s

O=C(NCc1ccccc1Br)c1ccc(-c2cccnc2)nc1
RP-LC retention time: 697 s

O=C(CN1CCN(Cc2ccc(F)cc2)C(=O)C1=O)N1CCN(c2ccccc2F)CC1
RP-LC retention time: 778 s

CCN1C(=O)CCc2cc(NC(=O)Cc3c(F)cccc3Cl)ccc21
RP-LC retention time: 792 s

Cc1ccc2c(c1)C1CC(C)(O2)N(c2cccc(C(=O)NCc3ccccn3)c2)C(=O)N1 (configuration not stated)
RP-LC retention time: 646 s

O=C(Nc1nc2c(s1)CN(C(=O)c1cc(C3CC3)on1)CC2)c1ccco1
RP-LC retention time: 710 s

CCC(C)NC(=O)C1CCN(S(=O)(=O)c2cn(CC)cn2)CC1 (configuration not stated)
RP-LC retention time: 639 s

O=C(Cn1c(=O)oc2ccccc21)Nc1nc(-c2nc3ccccc3s2)cs1
RP-LC retention time: 866 s

CCC(=O)Nc1ccc2c(c1)N(C(=O)c1ccco1)CCC2
RP-LC retention time: 725 s

Cn1cc(C=O)c2nccnc21
RP-LC retention time: 631 s

CCCCn1cc(S(=O)(=O)NCc2cccc(Cl)c2)c2cccnc21
RP-LC retention time: 1020 s

COCCN1C(=O)[C@H]2CN(Cc3ccc(OC)c(OC)c3OC)C[C@H]2C1=O
RP-LC retention time: 799 s

O=C(NC1CCCC1)C1CC(=O)N(c2ccc3c(c2)CCN3C(=O)C2CC2)C1 (configuration not stated)
RP-LC retention time: 704 s

O=C(Cc1cccc(F)c1)N1CCCC1c1nc(-c2ccc(F)cc2)no1 (configuration not stated)
RP-LC retention time: 1010 s

CN1C(=O)C2(CCN(C(=O)Cc3cccc(F)c3)C2)c2ccccc21 (configuration not stated)
RP-LC retention time: 803 s

CCNC(=O)C1(CCO)CCN(c2ncccn2)C1 (configuration not stated)
RP-LC retention time: 539 s

O=c1n(Cc2cccc(C(F)(F)F)c2)nc2c(S(=O)(=O)N3CCOCC3)cccn12
RP-LC retention time: 847 s

CCN(CC)c1ccc(NC(=O)CN2C(=O)C(C)(C)c3ccccc32)c(C)c1
RP-LC retention time: 630 s

CC1CN(c2nc3ccccc3nc2SCC(=O)N2CCOCC2)CC(C)O1 (configuration not stated)
RP-LC retention time: 882 s

O=C(NC1CCCCCC1)c1nnc(-c2ccc(S(=O)(=O)N3CCOCC3)cc2)o1
RP-LC retention time: 917 s

Cc1ccc2c(=O)c(C(=O)N3CCC(C)CC3)cn(CC(=O)NC3CCCCC3)c2n1
RP-LC retention time: 762 s

CCn1cc(-c2nc(C(=O)Nc3ccc(C)cc3)cs2)c2cccnc21
RP-LC retention time: 1160 s

COc1ccc(C2(C(=O)N3CCC(n4c(C)cnc4-c4ccccc4)C3)CC2)cc1 (configuration not stated)
RP-LC retention time: 661 s

CN1C(=O)C(C)(C(=O)Nc2ccc(Cl)cc2F)Oc2cccnc21 (configuration not stated)
RP-LC retention time: 894 s

Cn1c(=O)c(-c2ccc(C(=O)NC3CCCCC3)cc2)nc2cccnc21
RP-LC retention time: 882 s

CC(C)Cn1cc(S(=O)(=O)Nc2ccccc2Cl)c2cccnc21
RP-LC retention time: 1020 s

Cc1ccc(C)c(NC(=O)c2cn(-c3cc(-c4nc(C5CC5)no4)ccn3)cn2)c1
RP-LC retention time: 1100 s

Cn1cc(C(=O)Nc2ccc3c(c2)CCC3)c(S(=O)(=O)N2CCCCC2)n1
RP-LC retention time: 1090 s

CN1C(=O)[C@H]2CN(Cc3ccc(F)cc3F)C[C@H]2C1=O
RP-LC retention time: 587 s

COCc1cn(C2CN(C(=O)c3ccc(OC)c(F)c3)C2)nn1
RP-LC retention time: 649 s

O=C(Nc1ccccc1F)N1CCC(n2cnc3ccccc3c2=O)CC1
RP-LC retention time: 712 s

Cc1cc(-n2c(C)nc3ccccc3c2=O)ccc1NC(=O)Cc1cccs1
RP-LC retention time: 769 s

COC(=O)C(Cc1ccccc1)NC(=O)N1CCCn2nc(-c3ccncc3)cc2C1 (configuration not stated)
RP-LC retention time: 616 s
